For series [1] the following is noted: placebo-controlled; cited from earlier work.
Series [2] in a line: Coloring (Maillard reaction) of aqueous solutions on storage. Conditions: 6.0% in water by total weight of the composition. Format: physicochemical. The protocol: At the chemical level, glucosamine, which can be of either natural or synthetic origin, is a glucose molecule to which an amino grouping has bonded. Consequently, in water without the addition of sugar, this molecule automatically leads to the appearance of a brown color of the solution by the condensation reaction of the different glucosamine molecules together. This appears clearly in an aqueous 7.5% glucosamine solution. After 8 months at 40° C., the solution takes on a caramel hue.
Three solutions have been produced, each containing 7.5% glucosamine by weight with respect to the total weight of the composition and 6.0% chondroitin sulfate by weight with respect to the total weight of the composition. In two solutions, anhydrous citric acid was added before the introduction of chondroitin sulfate. One of the solutions was heated at 100° C. for 10 minutes.

The conditions of series [3]: animals, labeled chondroitin; cited from earlier work.
For series [4] the following is noted: humans, dependent on the molecular weight; cited from earlier work.
The conditions of series [5]: 800 to 1200 mg/day; cited from earlier work.
The conditions of series [6]: cited from earlier work.
The conditions of series [7]: beyond a pH of 7.0; cited from earlier work.
For series [8] the following is noted: taken orally; cited from earlier work.
For series [9] the following is noted: cited from earlier work. The source holds these as a separate data set.
The test system of another series is arthritic knee joint. Conditions: three to five injections at one-week intervals, on average; cited from earlier work.

Like-named read-outs stand apart in the source and are kept apart here.

Regarding `CC(=O)Oc1cccc2c1C(=O)c1c(OC(C)=O)cc(C(=O)O)cc1C2=O` [Diacerein], the articular joint space entry in [1] was “significant decrease in the articular joint space”.

Consider chondroitin sulfate, for which the “intensity of coloring compared with a pure 7.5% glucosamine solution” value in series [2] was “ten times less intense”. Also, the absorption entry in [3] was “more than 66%”. Also, the absorption entry in series [4] is “around 15%”. Also, in [5], the Lequesne index result is listed as “improves the Lequesne index”, the articular joint space result is listed as “preserves the articular joint space”, the mobility result is “improves mobility” and the pain entry is “reduces pain”. Besides, in series [6] (ethanol, propanol-1 and isopropanol), the solubility in alcohols entry is reported as “insoluble”.

With `N[C@H]1C(O)O[C@H](CO)[C@@H](O)[C@@H]1O` (stereo partly shown) [glucosamine], in [7], the degradation result is reported as “degrades rapidly”. For the same compound, in series [8], the absorption is around 90% and the “time until maximum concentration is reached” value was 8 h. The “efficacy on joint pain and swelling compared with ibuprofen” value in [9] (beginning in the second week of treatment) is on record as “more effective than ibuprofen”. For the same compound, the articular joint space result in series [9] (in vivo) is “preserves the articular joint space”. In addition, the “solubility in water and in an alcohol medium” value in series [6] is given as “highly soluble”.

On to hyaluronic acid, for which, in the series with arthritic knee joint, the duration of efficacy is listed as 8-9 months.

These data come from patent US20100210584A1, “LIQUID OR PASTE COMPOSITIONS INTENDED TO PROVIDE ELEMENTS ESSENTIAL FOR THE SYNTHESIS AND FORMATION OF PROTEOGLYCANS, IN PARTICULAR, FOR THE TREATMENT OF CARTILAGE DEGRADATION” (priority 2007, published 2010).
